Experimental findings from article PMC5830615 (Scientific Reports, 2018) are described below.

pEC50, pKd: −log10 of the molar value.

One assay concerns the target T1, human NPY2R (Homo sapiens, UniProt P49146).
T1 construct: 3xHA (own knowledge: 'TN' in the cDNA Resource Center clone ID denotes an N-terminal 3xHA tag); host or cells: HEK293-H188-C24 (transient transfection, pcDNA3.1)
T1 sequence (P49146 1-381): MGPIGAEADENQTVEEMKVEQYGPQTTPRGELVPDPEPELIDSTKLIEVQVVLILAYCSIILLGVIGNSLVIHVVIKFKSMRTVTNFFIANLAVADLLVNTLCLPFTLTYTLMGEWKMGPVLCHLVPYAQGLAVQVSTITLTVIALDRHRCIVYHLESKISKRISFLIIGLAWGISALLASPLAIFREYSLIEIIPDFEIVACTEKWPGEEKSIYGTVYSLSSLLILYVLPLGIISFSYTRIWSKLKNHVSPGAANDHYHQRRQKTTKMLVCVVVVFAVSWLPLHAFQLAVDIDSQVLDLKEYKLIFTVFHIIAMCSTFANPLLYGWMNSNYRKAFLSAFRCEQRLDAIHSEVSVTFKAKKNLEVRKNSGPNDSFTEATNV
The assay is described as follows: FRET assay, inhibition of adenosine-stimulated cAMP production in HEK293-H188-C24 cells transfected with human NPY2R. The format is cell-based. The following applies: BIIE0246 300 nM; adenosine 2 μM. As to the method: (§1) Transient transfections were performed using Lipofectamine and Plus Reagent (Thermo Fisher) using methodology described previously by our laboratory for HEK293 cells. […] Plasmid encoding human NPY2R (I.D. NPYR20TN00) in pcDNA3.1 was from the University of Missouri-Rolla cDNA Resource Center (Rolla, MO). Individual clones of HEK293 cells stably expressing select FRET reporters were obtained by G418 antibiotic resistance selection, as described previously. Adenovirus for transduction of HEK293 cells with H188 was generated by a commercial vendor (ViraQuest, North Liberty, IA) using the shuttle vector pVQAd CMV K-NpA and the H188 plasmid originally created by Klarenbeek and co-workers[30].
(§2) HEK293-H188-C24 cells stably expressing H188 were plated at 80% confluence on 96-well clear-bottom assay plates (Costar 3904, Corning, NY) coated with rat tail collagen (Collaborative Biomedical Products, Bedford, MA). […] Real-time kinetic assays of FRET were performed using a FlexStation 3 microplate reader equipped with monochromators (Molecular Devices, Sunnyvale, CA). Excitation light was delivered at 435/9 nm (455 nm cut-off), and emitted light was detected at 485/15 nm (CFP) or 535/15 nm (YFP)[31],[34]–[36]. […]
A general note: Cyclic AMP is a second messenger, typically raised through Gs and lowered through Gi signalling.

Assay [1] concerns HEK293-H188-C24 cells, empty vector (EV). The assay is described as follows: FRET cAMP assay in HEK293-H188-C24 cells transfected with negative control empty vector. It counts as cell-based, human. The following applies: GLP-1 and exendin-4 at 10 nM. As to the method:
as §1, §2

Another assay deals with wild-type HEK293 cells. In words: FRET cAMP assay in wild-type HEK293 cells transduced with H188 (negative control). The format is cell-based, human. The following applies: WT HEK293 lacking recombinant receptors, H188 virus; IBMX at 50 μM. As to the method:
(§3) HEK293-H188-C24 cells stably expressing H188 were plated at 80% confluence on 96-well clear-bottom assay plates (Costar 3904, Corning, NY) coated with rat tail collagen (Collaborative Biomedical Products, Bedford, MA). HEK293 cells stably expressing select GPCRs were transduced for 16 hours with H188 virus at a density of ca. 60,000 cells/well under conditions in which the multiplicity of infection (m.o.i.) was equivalent to 25 viral particles per cell. For all assays, the culture media was then removed and replaced by 200 μl/well of a standard extracellular saline (SES) solution supplemented with 11 mM glucose and 0.1% BSA[31],[34]–[36]. The composition of the SES was (in mM): 138 NaCl, 5.6 KCl, 2.6 CaCl2, 1.2 MgCl2, 11.1 glucose, and 10 Hepes (295 mOsmol, pH 7.4). Real-time kinetic assays of FRET were performed using a FlexStation 3 microplate reader equipped with monochromators (Molecular Devices, Sunnyvale, CA). Excitation light was delivered at 435/9 nm (455 nm cut-off), and emitted light was detected at 485/15 nm (CFP) or 535/15 nm (YFP)[31],[34]–[36]. The emission intensities were the averages of 12 excitation flashes for each time point per well.

Another assay concerns rat GIP receptor. In words: FRET cAMP assay in HEK293 cells stably expressing GIP receptor, transduced with H188. The format is cell-based. The conditions noted are these: GIP 3 nM. As to the method: as §3
In the next assay the test system is rat glucagon receptor. The assay is described as follows: FRET cAMP assay in HEK293 cells stably expressing glucagon receptor, transduced with H188. The following applies: Glucagon 3 nM. The format is cell-based. On the procedure: as §3
The test system of the next assay is adenosine A2B receptor. In words: FRET cAMP assay, endogenous adenosine A2B receptors in untransfected HEK293-H188-C24 cells. The conditions noted are these: read-out: Kd for antagonist action versus adenosine; versus 4 μM adenosine. It counts as cell-based, human. On the procedure:
HEK293 cells stably expressing select GPCRs were transduced for 16 hours with H188 virus at a density of ca. 60,000 cells/well under conditions in which the multiplicity of infection (m.o.i.) was equivalent to 25 viral particles per cell. For all assays, the culture media was then removed and replaced by 200 μl/well of a standard extracellular saline (SES) solution supplemented with 11 mM glucose and 0.1% BSA[31],[34]–[36]. […] Real-time kinetic assays of FRET were performed using a FlexStation 3 microplate reader equipped with monochromators (Molecular Devices, Sunnyvale, CA). […] The emission intensities were the averages of 12 excitation flashes for each time point per well.

Assay [2] deals with HEK293-H188-C24 cells (cAMP production). The assay is described as follows: High-throughput FRET assay of cAMP, forskolin in HEK293-H188-C24 cells. The conditions noted are these: Homo sapiens; HEK293-H188-C24 monolayers, 96-well microplate reader, 485/535 nm FRET ratio; read-out: EC50 of forskolin for H188 ΔFRET (sensitivity). The format is cell-based. The text has this: H188 contains the cAMP sensor Epac1 in which the full-length protein is truncated to remove the Disheveled, Egl-10, and Pleckstrin (DEP) membrane-targeting domain so that its expression is confined largely to the cytoplasm (Fig. 2a,b)[30]. T781A and F782A mutations introduced within the CDC25 homology domain disrupt guanine nucleotide exchange factor (GEF) activity so that binding of cAMP to H188 is not linked to downstream signaling events mediated by the Epac1 effector protein Rap1 GTPase (Fig. 2a)[30]. In H188 the Epac1 backbone is flanked by an mTurquoise2Δ FRET donor chromophore at the N-terminus, and tandem cp173 Venus-Venus FRET acceptor chromophores at the C-terminus (Fig. 2a). Binding of cAMP reduces FRET so that when exciting with 440 nm light, there is an increase of 485 nm (mTuquoise2Δ) and a decrease of 535 nm (cp173 Venus-Venus) emission fluorescence. This ΔFRET is measured as an increase of the 485/535 nm FRET ratio.
HEK293-H188-C24 cells stably expressing H188 were plated at 80% confluence on 96-well clear-bottom assay plates (Costar 3904, Corning, NY) coated with rat tail collagen (Collaborative Biomedical Products, Bedford, MA). […] Real-time kinetic assays of FRET were performed using a FlexStation 3 microplate reader equipped with monochromators (Molecular Devices, Sunnyvale, CA). […]

Assay [3] has as its system soluble adenylyl cyclase (sAC). In words: FRET assay of soluble adenylyl cyclase activity in HEK293-sAC cells transduced with H188. It counts as cell-based. The conditions noted are these: LRE1 50 μM versus IBMX 50 μM. As to the method: These actions of Rp-8-Br-cAMPS-pAB were not reproduced by the negative control 4-acetoxybenzy alcohol (4-Abn-OH) that lacks the cAMP moiety (Fig. 3e1,e2)[36].
HEK293-H188-C24 cells stably expressing H188 were plated at 80% confluence on 96-well clear-bottom assay plates (Costar 3904, Corning, NY) coated with rat tail collagen (Collaborative Biomedical Products, Bedford, MA). HEK293 cells stably expressing select GPCRs were transduced for 16 hours with H188 virus at a density of ca. 60,000 cells/well under conditions in which the multiplicity of infection (m.o.i.) was equivalent to 25 viral particles per cell. For all assays, the culture media was then removed and replaced by 200 μl/well of a standard extracellular saline (SES) solution supplemented with 11 mM glucose and 0.1% BSA[31],[34]–[36]. The composition of the SES was (in mM): 138 NaCl, 5.6 KCl, 2.6 CaCl2, 1.2 MgCl2, 11.1 glucose, and 10 Hepes (295 mOsmol, pH 7.4). Real-time kinetic assays of FRET were performed using a FlexStation 3 microplate reader equipped with monochromators (Molecular Devices, Sunnyvale, CA). Excitation light was delivered at 435/9 nm (455 nm cut-off), and emitted light was detected at 485/15 nm (CFP) or 535/15 nm (YFP)[31],[34]–[36]. […] The 485/535 emission ratio was calculated for each well and the mean +/− s.d. values for 12 wells were averaged. […]

As to `N=C(N)NCCC[C@H](NC(=O)CC1(CC(=O)N2CCN(C3c4ccccc4NC(=O)c4ccccc43)CC2)CCCC1)C(=O)NCCn1c(=O)n(-c2ccccc2)n(-c2ccccc2)c1=O` (some centres unmarked) [BIIE0246], the “Effect on inhibitory actions of EP45 (1,000 nM) and PYY(3–36) (300 nM)” value at human NPY2R is “reduced the inhibitory actions”.
For the molecule `CC[C@H](C)[C@H](NC(=O)[C@H](Cc1ccccc1)NC(=O)[C@H](CCC(=O)O)NC(=O)[C@H](CCCCN)NC(=O)[C@H](C)NC(=O)[C@H](C)NC(=O)[C@H](CCC(N)=O)NC(=O)CNC(=O)[C@H](CCC(=O)O)NC(=O)[C@H](CC(C)C)NC(=O)[C@H](Cc1ccc(O)cc1)NC(=O)[C@H](CO)NC(=O)[C@H](CO)NC(=O)[C@@H](NC(=O)[C@H](CC(=O)O)NC(=O)[C@H](CO)NC(=O)[C@@H](NC(=O)[C@H](Cc1ccccc1)NC(=O)[C@@H](NC(=O)CNC(=O)[C@H](CCC(=O)O)NC(=O)[C@H](C)NC(=O)[C@@H](N)Cc1c[nH]cn1)[C@@H](C)O)[C@@H](C)O)C(C)C)C(=O)N[C@@H](C)C(=O)N[C@@H](Cc1c[nH]c2ccccc12)C(=O)N[C@@H](CC(C)C)C(=O)N[C@H](C(=O)N[C@@H](CCCCN)C(=O)NCC(=O)N[C@@H](CCCNC(=N)N)C(N)=O)C(C)C` [GLP-1, glucagon-like peptide-1], the “Effect on levels of cAMP in empty vector cells” value in assay [1] was “without effect”. Also, the “Effect on levels of cAMP in wild-type HEK293 cells” value with wild-type HEK293 cells is “no such effect”.
With “gastric inhibitory polypeptide (YAEGTFISDYSIAMDKIHQQDFVNWLLAQKGKKNDWKHNITQ) [GIP, hormone]”, the “Effect on cAMP at GIP receptor, 3 nM” value with rat GIP receptor is “did raise levels of cAMP”.
As to glucagon, the “Effect on cAMP at glucagon receptor, 3 nM” value with rat glucagon receptor is reported as “did raise levels of cAMP”.
In the case of `CCCn1c(=O)c2[nH]c(-c3cnn(Cc4cccc(C(F)(F)F)c4)c3)nc2n(CC)c1=O` [GS6201], in the assay with adenosine A2B receptor, the negative-log Kd (pKd) (in general, the Kd on a negative log10 scale, so that one unit is a factor of ten) was 6.79.
Consider `C=C[C@@]1(C)CC(=O)[C@]2(O)[C@@]3(C)[C@@H](O)CCC(C)(C)[C@@H]3[C@H](O)[C@H](OC(C)=O)[C@@]2(C)O1` [forskolin], for which the pEC50 (in general, the negative decadic logarithm of the EC50, by convention in mol/L) in assay [2] was 6.30.
For `Nc1nc(Cl)cc(N(Cc2ccsc2)C2CC2)n1` [LRE1], in assay [3], the “Effect on IBMX-induced rise of cAMP in HEK293-sAC cells” value was “blocked”.
